Measurements taken from publication PMC10874388, “Cyclic peptides discriminate BCL-2 and its clinical mutants from BCL-XL by engaging a single-residue discrepancy” (Nature Communications, 2024).
Values joined by “and” are separate entries in the source; they are usually repeats but may differ in a detail not shown here. Identical values can stand only once. Starred links: 1 amine or outer side, 2 acyl side, 3 side chain; linkers in the order of their positions; H or OH if unused. Positions of bridges follow the written chain, without caps; N, C: chain ends. Residues, ends and D or L forms follow the SMILES beside them. X1 = O=C(C[*:2])NCCNC(=O)c1ccc(C2=N[C@H](C(=O)[*:1])CS2)cc1

Assays:
Assay type in all cases: cell-based
RS4:11 cells = experiment: Cell viability assay (CellTiter-Glo), RS4:11; conditions: RS4:11, single wells
Description: (§1) The cell lines Jurkat (TIB-152), El4 (TIB-39), Daudi (ccl-213), RS4:11 (crl-1873), A549 (ccl-185), HepG2 (hb-8065) and PANC-1 (crl-1469) were purchased from ATCC (American Type Culture Collection), and MGC-803 (C6582) was purchased from Beyotime (https://www.beyotime.com/product/C6582.htm). […] Daudi and RS4:11 cells were cultured in RPMI-1640 medium (HyClone, SH30809.01) and 10% FBS (Gibco, 10099-141), whereas HepG2, MGC-803 and PANC-1 cells were cultured in MDEM (HyClone, SH30243.01). Cells were maintained at 37 °C under a humidified, 5% (v/v) CO2-containing atmosphere.
(§2) Cell viability was measured using CellTiter-Glo® 2.0 Reagent (Promega, G9242). […] After different inhibitors were added into serum-free medium and cultured for 4 h (RS4:11 for 6 h), FBS were supplemented to 10% and then incubated totally for 24 h or 48 h. Finally, the IC50 values were calculated based on measurements using a microplate reader (Thermo, Varioskan LUX). Statistical analysis was performed using software GraphPad Prism 7.0.

Jurkat cells [1] = experiment: Mitochondrial membrane potential (JC-1), flow cytometry and fluorescence microscopy; conditions: for Q1(%) / Q1(%)/Q3(%) / Q3(%): Figure 6d, 4h, replicate values; for ΔΨm (ratio of red over green fluorescence, Q1/Q3): 4 h treatment, JC-1, flow cytometry, n = 3
Description: For the mitochondrial membrane potential (ΔΨm) analysis, the mitochondrial membrane potential assay kit with JC-1 dye (Beyotime, C2006) was used according to the manufacturer’s protocol. […] The value of ΔΨm was expressed as the ratio of red fluorescence intensity over green fluorescence intensity. After treated with JC-1, fluorescence intensity of Jurkat cells was tested by flow cytometry (BD FACSAria Fusion) and fluorescence microscopy (NIKON Ti-E), respectively. All experiments were performed in triplicate. Statistical analysis was performed using software GraphPad Prism 7.0.

Jurkat cells [2] = experiment: Apoptosis assay, Annexin V-FITC/PI staining and flow cytometry
Description: Jurkat cells were seeded to 6-well plates at a density of 4 ×10^5 cells per well. Cells were incubated in the presence of DMSO, venetoclax at 2.5 μM, cp1-TAT at 30 μM, cp2-TAT at 30 μM, or cp3-TAT at 20 μM in serum-free RPMI medium for 4 h. After being incubated totally for 24 h, cells were washed once with PBS and stained with 100 μL binding buffer containing 5 μL Annexin V-FITC and 10 μL PI for 15 min, followed by addition of 400 μL binding buffer to detect cell apoptosis with FCM (BD FACSAria Fusion). Statistical analysis was performed using software FlowJo V10 and GraphPad Prism 7.0.

MGC-803 cells = experiment: Cell viability assay (CellTiter-Glo), MGC-803; conditions: TAT control
Description: as §1, §2
(§3) Supplementary Figure 10 Functional mechanism of CPs. a. IC50 values of venetoclax against A549, MGC-803 and PANC-1 cells, measured after 48 h treatment by a CellTiter-Glo assay and calculated using Prism 7.0 by a nonlinear-fit method. Data are presented as mean ± s.d.; n= 6 biological replicates. b. […]
(§4) Glo assay. Each data point represents the mean ± s.d. for 6 biological replicates.
(§5) Supplementary Figure 11 IC50 values of different inhibitors against different cell lines. a-d. Viability of A549 (a), HepG2 (b), MGC-803 (c) and PANC-1 (d) cells treated with various concentrations of ABT-199 (venetoclax), and measured after 48 h by a CellTiter-Glo assay. e, f. Viability of Jurkat cells (e) and Daudi cells (f) treated with […]
(§6) after 48 h by a CellTiter-Glo assay. Each data point represents the mean ± s.d. for 6 biological replicates.
(§7) (1 picture or pasted object on this page, not shown here)

PANC-1 cells = experiment: Cell viability assay (CellTiter-Glo), PANC-1; conditions: PNAC-1, TAT control
Description: as §1, §2, §3, §4, §5, §6, §7

[3] = tested on: A549 cells overexpressing BCL-2 WT; experiment: Cell viability assay, A549 stably overexpressing BCL-2 WT; conditions: BCL2-WT A549, TAT control
Description: as §2
(§8) Lentivirus packaging vectors pMDLg/pRRE, pRSV-Rev, and pVSV-G were obtained from Prof. Han Jiahuai’s lab (Xiamen University). Lentiviruses were produced using 3rd-generation lentivirus packaging plasmids transiently transfected into HEK293T cells with the constructs of interest using 0.25 M CaCl2. Media was changed after 16 h, and supernatants containing infectious virus particles were harvested 24 h later. A second viral harvest was made following a further 24 h incubation with fresh media. Virus containing supernatant was filtered through a […], and stored at 4 °C or −80 °C until being used. Typically, A549 cells were seeded into 10 cm cell culture dishes at 4 ~ 8 × 10^5 cells/cm^2. An equivalent volume of virus containing culture medium was added along with polybrene (Sigma) to a final concentration of 10 µg/mL. Cells were incubated at 37 °C for 20 h, before they were washed and resuspended in fresh culture media. The expression level of BCL-2 was measured by qPCR and western blot methods.

[4] = tested on: A549 cells overexpressing BCL-2 G101V; experiment: Cell viability assay, A549 stably overexpressing BCL-2 G101V; conditions: BCL2/G101V A549, TAT control
Description: as §2, §8

A549 cells (control) = experiment: Cell viability assay (CellTiter-Glo), normal A549 (control); conditions: TAT control
Description: as §1, §2

C[C@@H]1NC(=O)[C@@H]2CCCN2C(=O)[C@@H]2CSC(=N2)c2ccc(cc2)C(=O)NCCNC(=O)CSC[C@@H](C(=O)NCC(=O)N[C@@H](CO)C(=O)NCC(=O)N[C@@H](CO)C(=O)N[C@@H](CCCNC(=N)N)C(=O)N[C@@H](CCCCN)C(=O)N[C@@H](CCCCN)C(=O)N[C@@H](CCCNC(=N)N)C(=O)N[C@@H](CCCNC(=N)N)C(=O)N[C@@H](CCC(N)=O)C(=O)N[C@@H](CCCNC(=N)N)C(=O)N[C@@H](CCCNC(=N)N)C(=O)N[C@@H](CCCNC(=N)N)C(N)=O)NC(=O)[C@H](CCC(=O)O)NC(=O)[C@H](Cc2ccc(O)cc2)NC(=O)[C@H](CC(=O)O)NC(=O)[C@H](Cc2c[nH]c3ccccc23)NC(=O)CNC(=O)[C@H](Cc2ccc(O)cc2)NC(=O)[C@H](CCCNC(=N)N)NC1=O [cp1-TAT] (PARYGWDYECGSGSRKKRRQRRR-NH2; linker N-10 via X1; C-terminus assumed)
raw luminescence reading (RS4:11 cells; 0.0488281 uM): 483100 and 539500 and 548500 and 508300 and 527200 and 488600
raw luminescence reading (RS4:11 cells; 0.0976562 uM): 528800 and 591800 and 582200 and 559700 and 554700 and 529500
raw luminescence reading (RS4:11 cells; 0.195312 uM): 524900 and 538800 and 551800 and 528900 and 518500 and 499500
inhibition rate (RS4:11 cells; 0.195312 uM, 0.195312 µM): 0.825% and -1.8% and -4.26% and 0.0693% and 2% and 5.62%
raw luminescence reading (RS4:11 cells; 0.390625 uM): 511700 and 533900 and 533200 and 520400 and 504300 and 479000
raw luminescence reading (RS4:11 cells; 0.78125 uM): 535400 and 544100 and 562800 and 550400 and 519400 and 494800
raw luminescence reading (RS4:11 cells; 1.5625 uM): 520400 and 578500 and 612400 and 550500 and 491200 and 506800
raw luminescence reading (RS4:11 cells; 3.125 uM): 414000 and 466800 and 497600 and 501300 and 428800 and 513500
raw luminescence reading (RS4:11 cells; 6.25 uM): 401900 and 468400 and 486300 and 500900 and 419400 and 497100
raw luminescence reading (RS4:11 cells; 12.5 uM): 380500 and 444100 and 470000 and 488300 and 390700 and 473300
inhibition rate (RS4:11 cells; 12.5 uM, 12.5 µM): 11%
raw luminescence reading (RS4:11 cells; 25 uM): 309300 and 375600 and 407800 and 416800 and 350200 and 401000
inhibition rate (RS4:11 cells; 25 uM, 25 µM): 42% and 29% and 23% and 21% and 34% and 24%
raw luminescence reading (RS4:11 cells; 50 uM): 222600 and 265500 and 282300 and 297300 and 246800 and 283000
inhibition rate (RS4:11 cells; 50 uM, 50 µM): 58% and 50% and 47% and 44% and 53%
raw luminescence reading (RS4:11 cells; 100 uM): 63070 and 74540 and 82840 and 89800 and 66010 and 86930
inhibition rate (RS4:11 cells; 100 uM, 100 µM): 88% and 86% and 84% and 83%
Q1(%) (Jurkat cells [1]): 67.4% and 59.1% and 60.9%
Q1(%)/Q3(%) (Jurkat cells [1]): 5.861 and 3.177 and 3.421
Q3(%) (Jurkat cells [1]): 11.5% and 18.6% and 17.8%
ΔΨm (ratio of red over green fluorescence, Q1/Q3) (Jurkat cells [1]; Jurkat): 4.15
Relative ΔΨm by JC-1 fluorescence staining (microscopy) (Jurkat cells [1]; Jurkat, 24 h treatment (Supplementary Fig. 13)): slightly decreased
cell apoptosis(%) (Jurkat cells [2]; Figure 6b, replicate values): 66.77% and 60.2%
Proportion of apoptotic cells (Jurkat cells [2]; Jurkat, 24 h, 30 μM): 66.77%

TAT (GSGSRKKRRQRRR)
average (raw viability reading) (MGC-803 cells): 627500
inhibition rate (MGC-803 cells; fraction, replicates): 0.09219 and 0.04796 and 0.06436 and 0.05774 and 0.0275 and 0.04676
raw viability reading (MGC-803 cells; replicates): 622000 and 626400 and 646500 and 633700 and 603500 and 632900
average (raw viability reading) (PANC-1 cells): 639133
inhibition rate (PANC-1 cells; fraction, replicates): 0.2393 and 0.182 and 0.1596 and 0.1507 and 0.1102 and 0.1321
raw viability reading (PANC-1 cells; replicates): 580400 and 624100 and 641200 and 648000 and 678900 and 662200
luminescence reading (raw, replicate wells) [3]: 525300 and 568300 and 525100 and 556600 and 515500 and 559500
luminescence reading, everage ([3]; mean of 6 wells): 541717
Q1(%) (Jurkat cells [1]): 92.3% and 93.6% and 94.9%
Q1(%)/Q3(%) (Jurkat cells [1]): 22.1343 and 27.3684 and 32.6117
Q3(%) (Jurkat cells [1]): 4.17% and 3.42% and 2.91%
ΔΨm (ratio of red over green fluorescence, Q1/Q3) (Jurkat cells [1]; Jurkat): 27.37
luminescence reading (raw, replicate wells) [4]: 540600 and 529300 and 534000 and 526600 and 523000 and 507100
luminescence reading, everage ([4]; mean of 6 wells): 526767
average (raw viability reading) (A549 cells (control); A549): 422183
inhibition rate (A549 cells (control); A549, fraction, replicates): 0.1678 and 0.2197 and 0.2282 and 0.2003 and 0.1961 and 0.2135
raw viability reading (A549 cells (control); A549, replicates): 409500 and 424300 and 426500 and 417300 and 441500 and 414000
luminescence reading (raw, replicate wells) (A549 cells (control); control A549): 640800 and 544000 and 632800 and 539700 and 559000 and 590400
luminescence reading, everage (A549 cells (control); control A549, mean of 6 wells): 584450
